Columns and labels:
Bacteroides fragilis [1] = assay: Antimicrobial activity against carbapenemase-producing Bacteroides fragilis GAI 30079 by agar dilution method in presence of 5% laked sheep blood; assay type: functional
Bacteroides fragilis [2] = assay: Antimicrobial activity against carbapenemase-producing Bacteroides fragilis GAI 30144 by agar dilution method in presence of 5% laked sheep blood; assay type: functional
Phocaeicola vulgatus = assay: Antimicrobial activity against Bacteroides vulgatus GAI 0673 by agar dilution method in presence of 5% laked sheep blood; assay type: functional
[3] = Antimicrobial activity against Parabacteroides distasonis ATCC 8503 by agar dilution method in presence of 5% laked sheep blood; assay type: functional
Bacteroides ovatus = assay: Antimicrobial activity against Bacteroides ovatus ATCC 8483 by agar dilution method in presence of 5% laked sheep blood; assay type: functional
[4] = test system: Bacteroides thetaiotaomicron; assay: Antimicrobial activity against Bacteroides thetaiotaomicron ATCC 29741 by agar dilution method in presence of 5% laked sheep blood; assay type: functional
Bacteroides uniformis = assay: Antimicrobial activity against Bacteroides uniformis ATCC 8492 by agar dilution method in presence of 5% laked sheep blood; assay type: functional
[5] = test system: Campylobacter ureolyticus; assay: Antimicrobial activity against Bacteroides ureolyticus NCTC 10941 by agar dilution method in presence of 5% laked sheep blood; assay type: functional
Campylobacter gracilis = assay: Antimicrobial activity against Campylobacter gracilis JCM 8538 by agar dilution method in presence of 5% laked sheep blood; assay type: functional
Prevotella bivia = assay: Antimicrobial activity against Prevotella bivia ATCC 29303 by agar dilution method in presence of 5% laked sheep blood; assay type: functional; conditions: DSM 20514
[6] = test system: Bacteroides heparinolyticus; assay: Antimicrobial activity against Prevotella heparinolytica ATCC 35895 by agar dilution method in presence of 5% laked sheep blood; assay type: functional
Prevotella intermedia = assay: Antimicrobial activity against Prevotella intermedia ATCC 25611 by agar dilution method in presence of 5% laked sheep blood; assay type: functional
Hoylesella oralis = assay: Antimicrobial activity against Prevotella oralis ATCC 33269 by agar dilution method in presence of 5% laked sheep blood; assay type: functional
Prevotella oris = assay: Antimicrobial activity against Prevotella oris ATCC 33573 by agar dilution method in presence of 5% laked sheep blood; assay type: functional; conditions: Segatella oris
[7] = test system: Porphyromonas asaccharolytica; assay: Antimicrobial activity against Porphyromonas asaccharolyticus ATCC 25260 by agar dilution method in presence of 5% laked sheep blood; assay type: functional; conditions: DSM 20707
Fusobacterium varium = assay: Antimicrobial activity against Fusobacterium varium ATCC 8501 by agar dilution method in presence of 5% laked sheep blood; assay type: functional
[8] = test system: Fusobacterium necrophorum; assay: Antimicrobial activity against Fusobacterium necrophorum ATCC 25286 by agar dilution method in presence of 5% laked sheep blood; assay type: functional
Bilophila wadsworthia = assay: Antimicrobial activity against Bilophila wadsworthia WAL 7959 by agar dilution method in presence of 5% laked sheep blood; assay type: functional
[9] = test system: Desulfovibrio desulfuricans; assay: Antimicrobial activity against Desulfovibrio desulfuricans ATCC 29577 by agar dilution method in presence of 5% laked sheep blood; assay type: functional
[10] = Antimicrobial activity against Desulfovibrio piger DSM 749 by agar dilution method in presence of 5% laked sheep blood; assay type: functional, Desulfovibrio piger ATCC 29098
Capnocytophaga ochracea = assay: Antimicrobial activity against Capnocytophaga ochracea GAI 5586 by agar dilution method in presence of 5% laked sheep blood; assay type: functional
Veillonella parvula = assay: Antimicrobial activity against Veillonella parvula ATCC 10790 by agar dilution method in presence of 5% laked sheep blood; assay type: functional
Anaerococcus prevotii = assay: Antimicrobial activity against Anaerococcus prevotii ATCC 9321 by agar dilution method in presence of 5% laked sheep blood; assay type: functional
Atopobium parvulum = assay: Antimicrobial activity against Atopobium parvulum VPI 0546 by agar dilution method in presence of 5% laked sheep blood; assay type: functional; conditions: Lancefieldella parvula
[11] = Antimicrobial activity against Finegoldia magna ATCC 29328 by agar dilution method in presence of 5% laked sheep blood; assay type: functional
Parvimonas micra = assay: Antimicrobial activity against Parvimonas micra VPI 5464-1 by agar dilution method in presence of 5% laked sheep blood; assay type: functional
[12] = test system: Peptoniphilus asaccharolyticus; assay: Antimicrobial activity against Peptoniphilus asaccharolyticus WAL 3218 by agar dilution method in presence of 5% laked sheep blood; assay type: functional
Peptoniphilus indolicus = assay: Antimicrobial activity against Peptoniphilus indolicus GAI 0915 by agar dilution method in presence of 5% laked sheep blood; assay type: functional
Gemella morbillorum = assay: Antimicrobial activity against Gemella morbillorum ATCC 27824 by agar dilution method in presence of 5% laked sheep blood; assay type: functional
[13] = test system: Streptococcus intermedius; assay: Antimicrobial activity against Streptococcus intermedius ATCC 27335 by agar dilution method in presence of 5% laked sheep blood; assay type: functional
[14] = test system: Enterocloster clostridioformis; assay: Antimicrobial activity against Clostridium clostridioforme NCTC 11224 by agar dilution method in presence of 5% laked sheep blood; assay type: functional
Thomasclavelia ramosa = assay: Antimicrobial activity against Clostridium ramosum ATCC 25582 by agar dilution method in presence of 5% laked sheep blood; assay type: functional
[15] = Antimicrobial activity against Bifidobacterium adolescentis ATCC 15703 by agar dilution method in presence of 5% laked sheep blood; assay type: functional
Bifidobacterium bifidum = assay: Antimicrobial activity against Bifidobacterium bifidum JCM 1255 by agar dilution method in presence of 5% laked sheep blood; assay type: functional
Bifidobacterium breve = assay: Antimicrobial activity against Bifidobacterium breve ATCC 15700 by agar dilution method in presence of 5% laked sheep blood; assay type: functional
[16] = Antimicrobial activity against Bifidobacterium longum subsp. longum ATCC 15707 by agar dilution method in presence of 5% laked sheep blood; assay type: functional
[17] = test system: Bifidobacterium pseudolongum; assay: Antimicrobial activity against Bifidobacterium pseudolongum ATCC 25526 by agar dilution method in presence of 5% laked sheep blood; assay type: functional
Cutibacterium acnes = assay: Antimicrobial activity against Propionibacterium acnes ATCC 11828 by agar dilution method in presence of 5% laked sheep blood; assay type: functional
[18] = test system: Propionibacterium granulosum; assay: Antimicrobial activity against Propionibacterium granulosum ATCC 25564 by agar dilution method in presence of 5% laked sheep blood; assay type: functional; conditions: Cutibacterium granulosum
[19] = test system: Limosilactobacillus fermentum; assay: Antimicrobial activity against Lactobacillus fermentum JCM 1173 by agar dilution method in presence of 5% laked sheep blood; assay type: functional
[20] = test system: Limosilactobacillus reuteri; assay: Antimicrobial activity against Lactobacillus reuteri JCM 1112 by agar dilution method in presence of 5% laked sheep blood; assay type: functional
Lactobacillus salivarius = assay: Antimicrobial activity against Lactobacillus salivarius subsp. salivarius JCM 1231 by agar dilution method in presence of 5% laked sheep blood; assay type: functional; conditions: Ligilactobacillus salivarius
Bacteroides fragilis [21] = assay: Antimicrobial activity against Bacteroides fragilis GAI 5562 by agar dilution method in presence of 5% laked sheep blood; assay type: functional
Bacteroides fragilis [22] = assay: Antimicrobial activity against Bacteroides fragilis ATCC 25285 by agar dilution method in presence of 5% laked sheep blood; assay type: functional; conditions: NCTC 9343
Bacteroides fragilis [23] = assay: Antimicrobial activity against Bacteroides fragilis NCTC 10581 by agar dilution method in presence of 5% laked sheep blood; assay type: functional
Bacteroides fragilis [24] = assay: Antimicrobial activity against Bacteroides fragilis GAI 0558 by agar dilution method in presence of 5% laked sheep blood; assay type: functional
Bacteroides fragilis [25] = assay: Antimicrobial activity against Bacteroides fragilis GAI 10150 by agar dilution method in presence of 5% laked sheep blood; assay type: functional

Measured: MIC

C[C@@H](O)[C@H]1C(=O)N2C(C(=O)O)=C(S[C@@H]3CN[C@H](CNS(N)(=O)=O)C3)[C@H](C)[C@H]12 [DORIPENEM]
0.03 µg/mL: [7] | [12]
0.06 µg/mL: [5] | [6] | Prevotella intermedia | Hoylesella oralis | Bilophila wadsworthia | [10] | Veillonella parvula | [19]
2 µg/mL: Bacteroides fragilis [25]
0.125 µg/mL: Campylobacter gracilis | Prevotella oris | [9] | Capnocytophaga ochracea | Parvimonas micra | [13] | Bifidobacterium bifidum | [20]
0.5 µg/mL: [3] | Bacteroides ovatus | [4] | Prevotella bivia | Fusobacterium varium | [17] | [18] | Lactobacillus salivarius | Bacteroides fragilis [21] | Bacteroides fragilis [22] | Bacteroides fragilis [23] | Bacteroides fragilis [24]
≤ 0.015 µg/mL: [8] | Peptoniphilus indolicus | Gemella morbillorum
1 µg/mL: Atopobium parvulum | Thomasclavelia ramosa | Bifidobacterium breve | [16] | Cutibacterium acnes
0.25 µg/mL: Phocaeicola vulgatus | Bacteroides uniformis | Anaerococcus prevotii | [11] | [14] | [15]
> 128 µg/mL: Bacteroides fragilis [1] | Bacteroides fragilis [2]

— ChEMBL document CHEMBL1275576, “In vitro activity of tomopenem (CS-023/RO4908463) against anaerobic bacteria” (Antimicrob Agents Chemother, 2009)
